Test results published in patent EP4678638A1, “NEW E3 UBIQUITIN LIGASE LIGAND, PROTEIN DEGRADATION AGENT AND USE THEREOF” (priority 2023, dated 2024).

Legend:
H1975 = assay: CCK-8 proliferation, NCI-H1975 (H1975); format: cell-based, Human; details: Homo sapiens, NCI-H1975; CCK-8; 96 hours; read-out: Inhibitory activity (IC50) on tumor cell proliferation, H1975
Procedure, shortened: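 Cells seeded, then after 24 h treated with 10 concentrations (top 10 µM, 5-fold serial dilution) for a line-specific time at 37°C, 5% CO2. Viability read by CCK-8; IC50 fitted from growth-inhibition curves.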

EGFR = assay: Western blot degradation of EGFR (H1975 Cell); format: cell-based, Human; details: Table D2
Procedure: Conventional Western blot assay was performed to evaluate the effects of the compounds of the present disclosure on the expression of target proteins in cells.
(1) Cell Seeding and Protein Harvesting: The selected cells were processed according to the cell seeding procedure and protein harvesting procedure in Table III-2. Table III-2 Cell Seeding and Protein Harvesting Procedures
(2) To the collected supernatant, 5X SDS sample loading buffer was added, followed by denaturation at 95°C for 5 minutes. The denatured samples were then separated by SDS-PAGE electrophoresis on a polyacrylamide gel. Proteins were transferred to a nitrocellulose membrane (0.45 µm NC membrane), blocked with blocking buffer at room temperature for 1 hour, and subjected to antibody incubation and development procedures according to the antibody manufacturer's instructions (Cell Signaling Technology).
Half-Maximal Degradation Concentration value (the drug concentration required for degrading proteins by 50%, abbreviated as DC50) reads method: comparing the grayscale values of Western blot bands from drug-treated samples with those from blank DMSO-treated controls, and identifying the drug concentration range at which the grayscale value is half that of the DMSO-treated control bands.
DC50 values can be calculated using ImageJ software to measure grayscale values of Western blot bands from drug-treated samples. The concentration-response curve is fitted to estimate the drug concentration corresponding to half the grayscale value.
Target protein remaining (%) refers to the percentage of target protein remaining in hPBMC cells after treatment with protein degrader compounds.
Calculation method for target protein remaining (%): Use ImageJ software to measure grayscale values of Western blot bands from drug (protein degrader)-treated samples. The grayscale value of drug-treated bands is divided by that of internal control protein bands, and the resulting quotient is normalized to obtain the relative percentage of remaining target protein after protein degrader treatment.
Target protein degradation rate (%) = 100% - target protein remaining (%).

Row | Structure (SMILES) | IC50 (H1975) [µM] | Degradation of substrate protein EGFR (substrate protein remaining %) (EGFR)
1 | O=C1CCN(c2ccc(CN3CCN(C4CCN(c5ccc(-c6cc(F)c7c(c6)C(=O)N(C(C(=O)Nc6nccs6)c6ncn8c6CCC8)C7)cc5)CC4(F)F)CC3)cc2)C(=O)N1 (stereo not shown) [GT-06318, 2-(6,7-dihydro-5H-pyrrolo[1,2-c]imidazol-1-yl)-2-(6-(4-(4-(4-(4-(2,4-dioxotetrahydropyrimidin-1(2H)-yl)benzyl)piperazin-1-yl)-3,3-difluoropiperidin-1-yl)phenyl)-4-fluoro-1-oxoisoindolin-2-yl)-N-(thiazol-2-yl)acetamide] | 0.01 to 0.05 | A (A is defined as 0% ≤ substrate protein remaining % ≤ 80%)
2 | O=C1CCN(c2ccc(CN3CCC(N4CCN(c5ccc(-c6cc(F)c7c(c6)C(=O)N(C(C(=O)Nc6nccs6)c6ncn8c6CCC8)C7)cc5)CC4)CC3)cn2)C(=O)N1 (stereo not shown) [GT-06330, 2-(6,7-dihydro-5H-pyrrolo[1,2-c]imidazol-1-yl)-2-(6-(4-(4-(1-((6-(2,4-dioxotetrahydropyrimidin-1(2H)-yl)pyridin-3-yl)methyl)piperidin-4-yl)piperazin-1-yl)phenyl)-4-fluoro-1-oxoisoindolin-2-yl)-N-(thiazol-2-yl)acetamide] | 0.001 to 0.01 | A (A is defined as 0% ≤ substrate protein remaining % ≤ 80%)
3 | O=C1CCN(c2ccc(CN3C[C@@H]4C[C@H]3CN4c3ccc(-c4cc(F)c5c(c4)C(=O)N(C(C(=O)Nc4nccs4)c4ncn6c4CCC6)C5)cc3)cc2)C(=O)N1 (stereo partly drawn) [GT-05116, 2-(6,7-dihydro-5H-pyrrolo[1,2-c]imidazol-1-yl)-2-(6-(4-((1S,4S)-5-(4-(2,4-dioxotetrahydropyrimidin-1(2H)-yl)benzyl)-2,5-diazabicyclo[2.2.1]heptan-2-yl)phenyl)-4-fluoro-1-oxoisoindolin-2-yl)-N-(thiazol-2-yl)acetamide] | 0.01 to 0.05 | A (A is defined as 0% ≤ substrate protein remaining % ≤ 80%)
4 | O=C1CCN(c2cccc(CN3C[C@@H]4C[C@H]3CN4c3ccc(-c4cc(F)c5c(c4)C(=O)N(C(C(=O)Nc4nccs4)c4ncn6c4CCC6)C5)cc3)c2)C(=O)N1 (stereo partly drawn) [GT-05117, 2-(6,7-dihydro-5H-pyrrolo[1,2-c]imidazol-1-yl)-2-(6-(4-((1S,4S)-5-(3-(2,4-dioxotetrahydropyrimidin-1(2H)-yl)benzyl)-2,5-diazabicyclo[2.2.1]heptan-2-yl)phenyl)-4-fluoro-1-oxoisoindolin-2-yl)-N-(thiazol-2-yl)acetamide] | 0.01 to 0.05 | A (A is defined as 0% ≤ substrate protein remaining % ≤ 80%)
5 | O=C1CCN(c2ccc(CN3C[C@@H]4C[C@H]3CN4c3ccc(-c4cc(F)c5c(c4)C(=O)N(C(C(=O)Nc4nccs4)c4ncn6c4CCC6)C5)cc3)nc2)C(=O)N1 (stereo partly drawn) [GT-05119, 2-(6,7-dihydro-5H-pyrrolo[1,2-c]imidazol-1-yl)-2-(6-(4-((1S,4S)-5-((5-(2,4-dioxotetrahydropyrimidin-1(2H)-yl)pyridin-2-yl)methyl)-2,5-diazabicyclo[2.2.1]heptan-2-yl)phenyl)-4-fluoro-1-oxoisoindolin-2-yl)-N-(thiazol-2-yl)acetamide] | 0.01 to 0.05 | A (A is defined as 0% ≤ substrate protein remaining % ≤ 80%)
6 | O=C1CCN(c2cccc(CN3C[C@H]4C[C@@H]3CN4c3ccc(-c4cc(F)c5c(c4)C(=O)N(C(C(=O)Nc4nccs4)c4ncn6c4CCC6)C5)cc3)c2)C(=O)N1 (stereo partly drawn) [GT-06178, 2-(6,7-dihydro-5H-pyrrolo[1,2-c]imidazol-1-yl)-2-(6-(4-((1R,4R)-5-(3-(2,4-dioxotetrahydropyrimidin-1(2H)-yl)benzyl)-2,5-diazabicyclo[2.2.1]heptan-2-yl)phenyl)-4-fluoro-1-oxoisoindolin-2-yl)-N-(thiazol-2-yl)acetamide] | 0.001 to 0.01 | A (A is defined as 0% ≤ substrate protein remaining % ≤ 80%)
7 | O=C1CCN(c2ccc(CN3CCN(C4CCN(c5ccc(-c6cc(F)c7c(c6)C(=O)N(C(C(=O)Nc6nccs6)c6ncn8c6CCC8)C7)cc5)CC4)CC3)cc2)C(=O)N1 (stereo not shown) [GT-06244, 2-(6,7-dihydro-5H-pyrrolo[1,2-c]imidazol-1-yl)-2-(6-(4-(4-(4-(4-(2,4-dioxotetrahydropyrimidin-1(2H)-yl)benzyl)piperazin-1-yl)piperidin-1-yl)phenyl)-4-fluoro-1-oxoisoindolin-2-yl)-N-(thiazol-2-yl)acetamide] | 0.001 to 0.01 | A (A is defined as 0% ≤ substrate protein remaining % ≤ 80%)
8 | O=C1CCC(c2ccc(CN3CCN(C4CCN(c5ccc(-c6cc(F)c7c(c6)C(=O)N(C(C(=O)Nc6nccs6)c6ncn8c6CCC8)C7)cc5)CC4)CC3)cc2)C(=O)N1 (stereo not shown) [GT-06243, 2-(6,7-dihydro-5H-pyrrolo[1,2-c]imidazol-1-yl)-2-(6-(4-(4-(4-(4-(2,6-dioxopiperidin-3-yl)benzyl)piperazin-1-yl)piperidin-1-yl)phenyl)-4-fluoro-1-oxoisoindolin-2-yl)-N-(thiazol-2-yl)acetamide] | 0.001 to 0.01 | A (A is defined as 0% ≤ substrate protein remaining % ≤ 80%)
9 | CN(Cc1cncc(C2CCC(=O)NC2=O)c1)C1CCN(c2ccc(-c3cc(F)c4c(c3)C(=O)N(C(C(=O)Nc3nccs3)c3ncn5c3CCC5)C4)cc2)CC1 (stereo not shown) [GT-07393, 2-(6,7-dihydro-5H-pyrrolo[1,2-c]imidazol-1-yl)-2-(6-(4-(4-(((5-(2,6-dioxopiperidin-3-yl)pyridin-3-yl)methyl)(methyl)amino)piperidin-1-yl)phenyl)-4-fluoro-1-oxoisoindolin-2-yl)-N-(thiazol-2-yl)acetamide] | 0.001 to 0.01 | A (A is defined as 0% ≤ substrate protein remaining % ≤ 80%)
10 | O=C1CCC(Nc2cccc(CN3CCN(C4CCN(c5ccc(-c6cc(F)c7c(c6)C(=O)N(C(C(=O)Nc6nccs6)c6ncn8c6CCC8)C7)cc5)CC4(F)F)CC3)c2)C(=O)N1 (stereo not shown) [GT-06321, 2-(6,7-dihydro-5H-pyrrolo[1,2-c]imidazol-1-yl)-2-(6-(4-(4-(4-(3-((2,6-dioxopiperidin-3-yl)amino)benzyl)piperazin-1-yl)-3,3-difluoropiperidin-1-yl)phenyl)-4-fluoro-1-oxoisoindolin-2-yl)-N-(thiazol-2-yl)acetamide] | 0.01 to 0.05 | A (A is defined as 0% ≤ substrate protein remaining % ≤ 80%)
11 | O=C1CCC(c2ccc(CN3CCN(C4CCN(c5ccc(-c6cc(F)c7c(c6)C(=O)N(C(C(=O)Nc6nccs6)c6ncn8c6CCC8)C7)cc5)CC4(F)F)CC3)cc2)C(=O)N1 (stereo not shown) [GT-06317, 2-(6,7-dihydro-5H-pyrrolo[1,2-c]imidazol-1-yl)-2-(6-(4-(4-(4-(4-(2,6-dioxopiperidin-3-yl)benzyl)piperazin-1-yl)-3,3-difluoropiperidin-1-yl)phenyl)-4-fluoro-1-oxoisoindolin-2-yl)-N-(thiazol-2-yl)acetamide] | 0.01 to 0.05 | A (A is defined as 0% ≤ substrate protein remaining % ≤ 80%)
12 | O=C1CCN(c2ccc(CN3CCN(c4ccc(-c5cc(F)c6c(c5)C(=O)N(C(C(=O)Nc5nccs5)c5ncn7c5CCC7)C6)cc4)CC3)nc2)C(=O)N1 (stereo not shown) [GT-06229, 2-(6,7-dihydro-5H-pyrrolo[1,2-c]imidazol-1-yl)-2-(6-(4-(4-((5-(2,4-dioxotetrahydropyrimidin-1(2H)-yl)pyridin-2-yl)methyl)piperazin-1-yl)phenyl)-4-fluoro-1-oxoisoindolin-2-yl)-N-(thiazol-2-yl)acetamide] | 0.001 to 0.01 | A (A is defined as 0% ≤ substrate protein remaining % ≤ 80%)
13 | O=C1CCC(Nc2cccc(CN3CCC(N4CCN(c5ccc(-c6cc(F)c7c(c6)C(=O)N(C(C(=O)Nc6nccs6)c6ncn8c6CCC8)C7)cc5)CC4)CC3)c2)C(=O)N1 (stereo not shown) [GT-06331, 2-(6,7-dihydro-5H-pyrrolo[1,2-c]imidazol-1-yl)-2-(6-(4-(4-(1-(3-((2,6-dioxopiperidin-3-yl)amino)benzyl)piperidin-4-yl)piperazin-1-yl)phenyl)-4-fluoro-1-oxoisoindolin-2-yl)-N-(thiazol-2-yl)acetamide] | 0.01 to 0.05 | A (A is defined as 0% ≤ substrate protein remaining % ≤ 80%)
14 | CN(Cc1ccnc(N2CCC(=O)NC2=O)c1)C1CCN(c2ccc(-c3cc(F)c4c(c3)C(=O)N(C(C(=O)Nc3nccs3)c3ncn5c3CCC5)C4)cc2)CC1 (stereo not shown) [GT-07383, 2-(6,7-dihydro-5H-pyrrolo[1,2-c]imidazol-1-yl)-2-(6-(4-(4-(((2-(2,4-dioxotetrahydropyrimidin-1(2H)-yl)pyridin-4-yl)methyl)(methyl)amino)piperidin-1-yl)phenyl)-4-fluoro-1-oxoisoindolin-2-yl)-N-(thiazol-2-yl)acetamide] | 0.001 to 0.01 | A (A is defined as 0% ≤ substrate protein remaining % ≤ 80%)
